Data taken from patent US10376520B2, “Methods for the treatment of cardiovascular disorders” (Galapagos NV, priority 2015, dated 2019).

Tested on: Subjects With Active Crohn's Disease
Assay: Total cholesterol determination, Study 5 (Crohn's disease, monotherapy of Compound 1)
Type: in vivo, human
Details: for [Total cholesterol] Mean CFB - 20 weeks results / [Total cholesterol] Median CFB - 20 weeks results: placebo week 0 to 10, to 100 mg q.d. week 10 to 20
From the text: Double-Blind, Randomized, Placebo-Controlled, Multi-Centre Study to Investigate the Efficacy and Safety of Compound 1 in Subjects With Active Crohn's Disease With Evidence of Mucosal Ulceration.
This is a double-blind, randomized, placebo-controlled, multi-centre Phase 2 study to investigate the efficacy and safety of Compound 1 administered once daily for the treatment of active CD with evidence of mucosal ulceration. The pharmacokinetics (including a PK substudy) and pharmacodynamics of Compound 1 and metabolite in CD will also be characterised.
A total of 180 eligible subjects will be randomized to receive Compound 1 or placebo in addition to their stable background treatment (eg, corticosteroids, aminosalicylates, or CD-related antibiotics). The study will consist of 2 parts, with total treatment duration of 20 weeks. Randomization in Part 1 will be stratified according the subject's previous anti-TNF exposure/response, CRP level at Screening, and oral corticosteroid use at visit Day −1.
After the first 10 weeks of treatment in Part 1, patients will be re-randomized for Part 2 as shown in the diagram below and will be stratified according to the subject's clinical response, previous anti-TNF exposure/response, and oral corticosteroid use at visit Day −1.
The following assays were conducted at Eurofins Global Central Laboratory, Bergschot 71, 4817 PA Breda, The Netherlands, and at Quest Diagnostics, Clinical Trials, Quest House, 125-135 Staines Road, Hounslow, Middlesex, TW3 3JB, United Kingdom. The assays for Study 5 were performed at BARC Europe, 3B, Industrie Park, Zwijnaarde, B-9052 Ghent, Belgium.
This method is based on the determination of Δ^4 cholestenone after enzymatic cleavage of the cholesterol ester by cholesterol esterase, conversion of cholesterol by cholesterol oxidase, and subsequent measurement by the Trinder reaction of the hydrogen peroxide formed (Allain et al., 1974).
Cholesterol esters are cleaved by the action of cholesterol esterase to yield free cholesterol and fatty acids. Cholesterol oxidase then catalyzes the oxidation of cholesterol to cholest-4-en-3-one and hydrogen peroxide. In the presence of peroxidase, the hydrogen peroxide formed effects the oxidative coupling of phenol and 4-aminophenazone to form a red quinone-imine dye. The color intensity of the dye formed is directly proportional to the cholesterol concentration. It is determined by measuring the increase in absorbance.
Human serum and plasma samples cholesterol determination was done on a Roche/Hitachi Cobas c 701/702 system which automatically calculate the analyte concentration of each sample.

[1] = Study 5 10 weeks results, 200 mg q.d., week 10
[2] = Study 5 20 weeks results, 200 mg q.d. to 100 mg q.d. at week 10, week 2
[3] = Study 5 20 weeks results, 200 mg q.d. to 100 mg q.d. at week 10, week 4
[4] = Study 5 20 weeks results, 200 mg q.d. to 100 mg q.d. at week 10, week 6
[5] = Study 5 20 weeks results, 200 mg q.d. to 100 mg q.d. at week 10, week 10
[6] = Study 5 20 weeks results, 200 mg q.d. to 100 mg q.d. at week 10, week 12
[7] = Study 5 20 weeks results, 200 mg q.d. to 100 mg q.d. at week 10, week 16
[8] = Study 5 20 weeks results, 200 mg q.d. to 100 mg q.d. at week 10, week 20
[9] = Study 5 20 weeks results, 200 mg q.d. to placebo at week 10, week 2
[10] = Study 5 20 weeks results, 200 mg q.d. to placebo at week 10, week 4
[11] = Study 5 20 weeks results, 200 mg q.d. to placebo at week 10, week 6
[12] = Study 5 20 weeks results, 200 mg q.d. to placebo at week 10, week 10
[13] = Study 5 20 weeks results, 200 mg q.d. to placebo at week 10, week 12
[14] = Study 5 20 weeks results, 200 mg q.d. to placebo at week 10, week 16
[15] = Study 5 20 weeks results, 200 mg q.d. to placebo at week 10, week 20
[16] = Study 5 20 weeks results, continued 200 mg q.d., week 2
[17] = Study 5 20 weeks results, continued 200 mg q.d., week 4
[18] = Study 5 20 weeks results, continued 200 mg q.d., week 6
[19] = Study 5 20 weeks results, continued 200 mg q.d., week 10
[20] = Study 5 20 weeks results, continued 200 mg q.d., week 12
[21] = Study 5 20 weeks results, continued 200 mg q.d., week 16
[22] = Study 5 20 weeks results, continued 200 mg q.d., week 20
[23] = Study 5 20 weeks results, placebo to 100 mg q.d. at week 10, week 12
[24] = Study 5 20 weeks results, placebo to 100 mg q.d. at week 10, week 16
[25] = Study 5 20 weeks results, placebo to 100 mg q.d. at week 10, week 20

Compound: O=C(Nc1nc2cccc(-c3ccc(CN4CCS(=O)(=O)CC4)cc3)n2n1)C1CC1 [Compound 1, cyclopropanecarboxylic acid {5-[4-(1,1-dioxo-thiomorpholin-4-ylmethyl)-phenyl]-[1,2,4]triazolo[1,5-a]pyridin-2yl}-amide]
- [Total cholesterol] Median CFB [1]: 0.340 mmol/L
- [total cholesterol] Mean CFB [1]: 0.401 mmol/L
- [Total cholesterol] Median CFB [2]: 0.19 mmol/L
- [total cholesterol] Mean CFB [2]: 0.18 mmol/L
- [Total cholesterol] Median CFB [3]: 0.12 mmol/L
- [total cholesterol] Mean CFB [3]: 0.27 mmol/L
- [Total cholesterol] Median CFB [4]: 0.28 mmol/L
- [total cholesterol] Mean CFB [4]: 0.26 mmol/L
- [Total cholesterol] Median CFB [5]: 0.38 mmol/L
- [total cholesterol] Mean CFB [5]: 0.44 mmol/L
- [Total cholesterol] Median CFB [6]: 0.33 mmol/L
- [total cholesterol] Mean CFB [6]: 0.23 mmol/L
- [Total cholesterol] Median CFB [7]: 0.13 mmol/L
- [total cholesterol] Mean CFB [7]: 0.09 mmol/L
- [Total cholesterol] Median CFB [8]: 0.10 mmol/L
- [total cholesterol] Mean CFB [8]: 0.14 mmol/L
- [Total cholesterol] Median CFB [9]: 0.24 mmol/L
- [total cholesterol] Mean CFB [9]: 0.16 mmol/L
- [Total cholesterol] Median CFB [10]: 0.34 mmol/L
- [total cholesterol] Mean CFB [10]: 0.27 mmol/L
- [Total cholesterol] Median CFB [11]: 0.29 mmol/L
- [total cholesterol] Mean CFB [11]: 0.22 mmol/L
- [Total cholesterol] Median CFB [12]: 0.23 mmol/L
- [total cholesterol] Mean CFB [12]: 0.22 mmol/L
- [Total cholesterol] Median CFB [13]: 0.18 mmol/L
- [total cholesterol] Mean CFB [13]: 0.04 mmol/L
- [Total cholesterol] Median CFB [14]: 0.05 mmol/L
- [total cholesterol] Mean CFB [14]: 0.19 mmol/L
- [Total cholesterol] Median CFB [15]: 0.07 mmol/L
- [total cholesterol] Mean CFB [15]: 0.18 mmol/L
- [Total cholesterol] Median CFB [16]: 0.21 mmol/L
- [total cholesterol] Mean CFB [16]: 0.27 mmol/L
- [Total cholesterol] Median CFB [17]: 0.16 mmol/L
- [total cholesterol] Mean CFB [17]: 0.14 mmol/L
- [Total cholesterol] Median CFB [18]: 0.33 mmol/L
- [total cholesterol] Mean CFB [18]: 0.19 mmol/L
- [Total cholesterol] Median CFB [19]: 0.47 mmol/L
- [total cholesterol] Mean CFB [19]: 0.43 mmol/L
- [Total cholesterol] Median CFB [20]: 0.29 mmol/L
- [total cholesterol] Mean CFB [20]: 0.42 mmol/L
- [Total cholesterol] Median CFB [21]: 0.31 mmol/L
- [total cholesterol] Mean CFB [21]: 0.43 mmol/L
- [Total cholesterol] Median CFB [22]: 0.26 mmol/L
- [total cholesterol] Mean CFB [22]: 0.40 mmol/L
- [Total cholesterol] Median CFB [23]: 0.02 mmol/L
- [total cholesterol] Mean CFB [23]: 0.11 mmol/L
- [Total cholesterol] Median CFB [24]: 0.01 mmol/L
- [total cholesterol] Mean CFB [24]: 0.08 mmol/L
- [Total cholesterol] Median CFB [25]: 0.10 mmol/L
- [total cholesterol] Mean CFB [25]: 0.03 mmol/L
- [Total cholesterol] Mean CFB - 20 weeks results (week 12): 2.49%
- [Total cholesterol] Median CFB - 20 weeks results (week 12): 0.41%
- [Total cholesterol] Mean CFB - 20 weeks results (week 16): 2.84%
- [Total cholesterol] Median CFB - 20 weeks results (week 16): 0.19%
- [Total cholesterol] Mean CFB - 20 weeks results (week 20): 1.90%
- [Total cholesterol] Median CFB - 20 weeks results (week 20): 2.81%
